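96-well plates; 48 h exposure; 5 concentrations. Endpoints by linear interpolation between flanking doses. Not reached: highest tested concentration assigned. Abbreviation: GI50, concentration required for 50% inhibition of growth. The concentration for full growth arrest is given as TGI.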
What was measured:
Assay in all cases: DTP human tumour cell line panel, 48 h
786-0 renal = test system: 786-0 renal
RXF 393 renal = test system: RXF 393 renal
NCI/ADR-RES ovarian = test system: NCI/ADR-RES ovarian
SW-620 colon = test system: SW-620 colon
UO-31 renal = test system: UO-31 renal
SK-OV-3 ovarian = test system: SK-OV-3 ovarian
SN12C renal = test system: SN12C renal
COLO 205 colon = test system: COLO 205 colon
SNB-75 CNS = test system: SNB-75 CNS
NCI-H460 lung = test system: NCI-H460 lung
KM12 colon = test system: KM12 colon
SR leukemia = test system: SR leukemia
M14 melanoma = test system: M14 melanoma
MCF7 breast = test system: MCF7 breast
SK-MEL-5 melanoma = test system: SK-MEL-5 melanoma
HCC-2998 colon = test system: HCC-2998 colon
A549 NSCLC = test system: A549 NSCLC
SF-295 CNS = test system: SF-295 CNS
NCI-H226 lung = test system: NCI-H226 lung
CCRF-CEM leukemia = test system: CCRF-CEM leukemia
CAKI-1 renal = test system: CAKI-1 renal
MDA-MB-231 breast = test system: MDA-MB-231 breast
MOLT-4 leukemia = test system: MOLT-4 leukemia
OVCAR-4 ovarian = test system: OVCAR-4 ovarian
RPMI-8226 leukemia = test system: RPMI-8226 leukemia
PC-3 prostate = test system: PC-3 prostate
OVCAR-5 ovarian = test system: OVCAR-5 ovarian
SNB-19 CNS = test system: SNB-19 CNS
HOP-92 NSCLC = test system: HOP-92 NSCLC
HCT-116 colon = test system: HCT-116 colon
SK-MEL-28 melanoma = test system: SK-MEL-28 melanoma
TK-10 renal = test system: TK-10 renal
LOX IMVI melanoma = test system: LOX IMVI melanoma
DU-145 prostate = test system: DU-145 prostate
HCT-15 colon = test system: HCT-15 colon
T-47D breast = test system: T-47D breast
HS 578T breast = test system: HS 578T breast
A498 renal = test system: A498 renal
OVCAR-3 ovarian = test system: OVCAR-3 ovarian
NCI-H23 lung = test system: NCI-H23 lung
SF-268 CNS = test system: SF-268 CNS
UACC-257 melanoma = test system: UACC-257 melanoma
HOP-62 NSCLC = test system: HOP-62 NSCLC
HL-60(TB) leukemia = test system: HL-60(TB) leukemia
EKVX NSCLC = test system: EKVX NSCLC
OVCAR-8 ovarian = test system: OVCAR-8 ovarian
K-562 leukemia = test system: K-562 leukemia
MDA-MB-435 = test system: MDA-MB-435
ACHN renal = test system: ACHN renal
SK-MEL-2 melanoma = test system: SK-MEL-2 melanoma
IGROV1 ovarian = test system: IGROV1 ovarian
BT-549 breast = test system: BT-549 breast
HT29 colon = test system: HT29 colon
UACC-62 melanoma = test system: UACC-62 melanoma
NCI-H522 lung = test system: NCI-H522 lung
SF-539 CNS = test system: SF-539 CNS
U251 CNS = test system: U251 CNS

Which results are given for OCc1c[nH]c2ccccc12?
GI50 (786-0 renal): 33.7 µM; TGI (786-0 renal): 93.3 µM; GI50 (RXF 393 renal): 18.2 µM; TGI (RXF 393 renal): 43.8 µM; GI50 (NCI/ADR-RES ovarian): 23.2 µM; TGI (NCI/ADR-RES ovarian): 71.4 µM; GI50 (SW-620 colon): 17.9 µM; TGI (SW-620 colon): 36.8 µM; GI50 (UO-31 renal): 6.29 µM; TGI (UO-31 renal): 50.9 µM; GI50 (SK-OV-3 ovarian): 26.3 µM; TGI (SK-OV-3 ovarian): 98.9 µM; GI50 (SN12C renal): 18.9 µM; TGI (SN12C renal): 39.7 µM; GI50 (COLO 205 colon): 16 µM; TGI (COLO 205 colon): 35.1 µM; GI50 (SNB-75 CNS): 24.2 µM; TGI (SNB-75 CNS): > 100 µM; GI50 (NCI-H460 lung): 21 µM; TGI (NCI-H460 lung): 45.4 µM; GI50 (KM12 colon): 16 µM; TGI (KM12 colon): 37.2 µM; GI50 (SR leukemia): 30.2 µM; TGI (SR leukemia): 77.4 µM; GI50 (M14 melanoma): 23.4 µM; TGI (M14 melanoma): 54.1 µM; GI50 (MCF7 breast): 29.4 µM; TGI (MCF7 breast): 95.4 µM; GI50 (SK-MEL-5 melanoma): 14.4 µM; TGI (SK-MEL-5 melanoma): 30.1 µM; GI50 (HCC-2998 colon): 20.2 µM; TGI (HCC-2998 colon): 41 µM; GI50 (A549 NSCLC): 20.8 µM; TGI (A549 NSCLC): 57.9 µM; GI50 (SF-295 CNS): 19.4 µM; TGI (SF-295 CNS): 40.9 µM; GI50 (NCI-H226 lung): 17.4 µM; TGI (NCI-H226 lung): 48.1 µM; GI50 (CCRF-CEM leukemia): 26.9 µM; TGI (CCRF-CEM leukemia): > 100 µM; GI50 (CAKI-1 renal): 15.8 µM; TGI (CAKI-1 renal): 52.8 µM; GI50 (MDA-MB-231 breast): 14.7 µM; TGI (MDA-MB-231 breast): 47.7 µM; GI50 (MOLT-4 leukemia): 39.1 µM; TGI (MOLT-4 leukemia): > 100 µM; GI50 (OVCAR-4 ovarian): 33 µM; TGI (OVCAR-4 ovarian): > 100 µM; GI50 (RPMI-8226 leukemia): 20.6 µM; TGI (RPMI-8226 leukemia): 64.2 µM; GI50 (PC-3 prostate): 15.5 µM; TGI (PC-3 prostate): 45.3 µM; GI50 (OVCAR-5 ovarian): 20.8 µM; TGI (OVCAR-5 ovarian): 58.6 µM; GI50 (SNB-19 CNS): 33 µM; TGI (SNB-19 CNS): > 100 µM; GI50 (HOP-92 NSCLC): 9.35 µM; TGI (HOP-92 NSCLC): 63.5 µM; GI50 (HCT-116 colon): 17.2 µM; TGI (HCT-116 colon): 31.9 µM; GI50 (SK-MEL-28 melanoma): 23.5 µM; TGI (SK-MEL-28 melanoma): 50.1 µM; GI50 (TK-10 renal): 44.5 µM; TGI (TK-10 renal): > 100 µM; GI50 (LOX IMVI melanoma): 16.2 µM; TGI (LOX IMVI melanoma): 32.7 µM; GI50 (DU-145 prostate): 28.7 µM; TGI (DU-145 prostate): 77.4 µM; GI50 (HCT-15 colon): 20.3 µM; TGI (HCT-15 colon): 55.3 µM; GI50 (T-47D breast): 16 µM; TGI (T-47D breast): > 100 µM; GI50 (HS 578T breast): 33.9 µM; TGI (HS 578T breast): > 100 µM; GI50 (A498 renal): 31.3 µM; TGI (A498 renal): > 100 µM; GI50 (OVCAR-3 ovarian): 20.3 µM; TGI (OVCAR-3 ovarian): 49.3 µM; GI50 (NCI-H23 lung): 19.5 µM; TGI (NCI-H23 lung): 48.1 µM; GI50 (SF-268 CNS): 33.4 µM; TGI (SF-268 CNS): > 100 µM; GI50 (UACC-257 melanoma): 22.9 µM; TGI (UACC-257 melanoma): 74 µM; GI50 (HOP-62 NSCLC): 14.4 µM; TGI (HOP-62 NSCLC): 36.7 µM; GI50 (HL-60(TB) leukemia): 35.1 µM; TGI (HL-60(TB) leukemia): 77.3 µM; GI50 (EKVX NSCLC): 15.5 µM; TGI (EKVX NSCLC): 63.3 µM; GI50 (OVCAR-8 ovarian): 29.8 µM; TGI (OVCAR-8 ovarian): > 100 µM; GI50 (K-562 leukemia): 33.8 µM; TGI (K-562 leukemia): > 100 µM; GI50 (MDA-MB-435): 19.8 µM; TGI (MDA-MB-435): 48.2 µM; GI50 (ACHN renal): 24.4 µM; TGI (ACHN renal): 86.4 µM; GI50 (SK-MEL-2 melanoma): 17.4 µM; TGI (SK-MEL-2 melanoma): 32.8 µM; GI50 (IGROV1 ovarian): 14.1 µM; TGI (IGROV1 ovarian): 42.2 µM; GI50 (BT-549 breast): 28.9 µM; TGI (BT-549 breast): 73.3 µM; GI50 (HT29 colon): 24 µM; TGI (HT29 colon): 54.6 µM; GI50 (UACC-62 melanoma): 15.3 µM; TGI (UACC-62 melanoma): 35.8 µM; GI50 (NCI-H522 lung): 16.7 µM; TGI (NCI-H522 lung): 37.1 µM; GI50 (SF-539 CNS): 19.3 µM; TGI (SF-539 CNS): 46.1 µM; GI50 (U251 CNS): 21.9 µM; TGI (U251 CNS): 62 µM

Reference: PubChem BioAssay (NCI)
